Data from US12616753B2, “HSP70 inhibitors and methods of using same” (THE WISTAR INSTITUTE, priority 2020, dated 2026).

Assays:
[1] = system: 1205LU melanoma xenografts; experiment: 1205Lu melanoma xenograft in NSG mice; type: in vivo, mouse; conditions: i.p. twice per week
Method: 1205LU melanoma xenografts in NSG mice were established. When tumors reached 100 mm^3 in volume, mice were treated twice per week with the i.p. doses of AP-4-139B indicated.
AP-4-139B was tested as a single agent in a 1205Lu melanoma xenograph in mice. 1205LU melanoma xenografts in NSG mice were established. When tumors reached 100 mm^3 in volume, mice were treated twice per week with the i.p. doses of AP-4-139B indicated.

[2] = system: MC38 cells; experiment: Cell death of MC38 cells pre-treated for vaccination (Trypan Blue staining); type: cell-based, mouse; conditions: 10 μM, 48 h
Method: For in vivo metastasis assays, 8-10 week old male C57Bl/6 mice were injected with 4×10^5 MC38 cells. Mice were then treated with either vehicle or 10 mg/kg AP-4-139B every 48 hours for 3 weeks. At the end of the study, mice were euthanized, lungs were harvested and fixed in formalin for analysis of lung tumor nodules by H&E. For anti-tumor vaccination studies, MC38 cells were treated with 10 μM AP-4-139B for 48 h, resulting in approximately 20% cell death (as assessed by Trypan Blue staining). 2×10^6 pre-treated MC38 cells or PBS was inoculated subcutaneously into the left flank of 8-10 week old male C57BL/6 mice. Ten days later, mice were challenged on the right flank with 5×10^5 live MC38 cells, and tumor growth and incidence were monitored 3 times per week. The absence of tumors was scored as an indication for efficient antitumor vaccination.

[3] = system: MC38 and HT-29 cells; experiment: Extracellular ATP release (CellTiter-Glo); type: cell-based
Method: FIG. 6A: 1×10^6 MC38 cells were injected subcutaneously into the right flank of 6-8-week-old male C57Bl/6 mice. Once tumors reached an approximate volume of 100 mm^3, mice were treated with AP-4-139B (10 mg/kg) every 48 hours. 20 days after the start of treatment, tumors were excised, weighed, minced and digested. Tumor-infiltrating and splenic conventional CD4 (cCD4) (Live CD45^+ DUMP^− CD3^+CD4^+Foxp3^−), Tregs (Live CD45^+ DUMP^− CD3^+CD4^+Foxp3^+), CD8 (Live CD45^+ DUMP^− CD3^+CD8^+) T-cells, and Dendritic Cells (Live CD45^+ DUMP^− CD3^−CD11c^+MHCII^+) numbers were assessed by flow cytometry. * p<0.05, n.s. not significant. n=8 mice per group. FIG. 6B: MC38 and HT-29 cells were treated with the indicated concentrations of AP-4-139B for either 8 or 24 hours; media was collected and subjected to WB for HMGB1. Data shown are representative of three technical replicates. FIG. 6C: MC38 and HT-29 cells were treated with the indicated concentrations of AP-4-139B for three hours and then assayed for extracellular ATP release. Each graphical representation indicates the mean±the standard deviation of three independent experiments relative to control (DMSO-treated) cells.
FIG. 6D: MC38 cells were treated with 5 μM AP-4-139B for 24 hours and subjected to flow cytometry, using Alexa488-tagged calreticulin antibody. *** p<0.001, n=4 biological replicates performed in duplicate. FIG. 6E: MC38 cells were treated with increasing concentrations of AP-4-139B, G-TPP, 17-AAG or Metformin for 3 hours and then assayed for extracellular ATP release. Three independent cultures were assayed for each treatment, and DMSO-treated cells were used as internal controls. Error bars represent standard deviation (SD).
The XF Cell Mito Stress Test was performed. Briefly, HT-29 (10,000 cells/well), IMR90 (15,000 cells/well), and 1205Lu (15,000 cells/well) were plated in Seahorse 96-well cell culture microplates, treated with the respective inhibitors for 24 hours, and subjected to the Seahorse XF Cell Mito Stress Test, according to the manufacturer's protocol (Agilent Technologies). For extracellular HMGB1 release, 1×10^6 MC38 cells were plated in 10-cm dishes. The next day, cells were treated with the indicated concentrations of AP-4-139B for 8 or 24 hours in serum-free media. Media was collected and spun down at 2,000 rpm for 5 minutes to pellet any remaining cells or debris. Media was then transferred to Amicon Ultra 15, 10K tubes and spun down at 4,000 rpm for 45 minutes, according to the manufacturer's protocol. […] For extracellular ATP release, ATP was measured using the CellTiter-Glo Kit (Promega catalog #G7570). […] 10 μl of CellTiter-Glo Reaction Mix was then mixed with 10 μl of culture media; the luminescence signal was detected using a luminometer.

[4] = system: WM983B tumor xenografts; experiment: WM983B melanoma xenograft in NSG mice; type: in vivo, mouse; conditions: 12.5 mg/kg i.p. twice per week
Method: WM983B tumor xenografts were established in NSG mice. […] Tumors were collected at the end of the experiment and assessed for the level of the client protein MRPS14.
FIG. 18 comprises a series of images illustrating IHC of WM983B treated tumors using IgG negative control or antisera to MRPS14t.
AP-4-139B was tested as a single agent in a WM983B melanoma xenograph in mice. WM983B tumor xenografts were established in NSG mice. […] Tumors were collected at the end of the experiment and assessed for the level of the client protein MRPS14.

[5] = Half-life of PET-16 in plasma

Row | Compound | tumor growth, 1205Lu xenograft [1] | tumor weight, 1205Lu xenograft [1] | cell death of MC38 cells [2] | ATP release ([3]; MC38 and HT-29, three hours) | ATP release, comparison of compounds ([3]; MC38 cells, increasing concentrations, 3 hours) | level of client protein MRPS14 in tumors (IHC) [4] | tumor growth, WM983B xenograft [4] | half-life [5]
1 | c1ccc(-c2cn3nc(CCCCCC[P+](c4ccccc4)(c4ccccc4)c4ccccc4)sc3n2)cc1 [AP-4-139B, Triphenyl(6-(6-phenylimidazo[2,1-b][1,3,4]thiadiazol-2-yl)hexyl)phosphonium bromide] | inhibit tumor growth | reduce tumor weight | approximately 20% | ATP release | most significant release of ATP | lose mitochondrial protein MPS14 | inhibit tumor growth | –
2 | C(#C[P+](c1ccccc1)(c1ccccc1)c1ccccc1)c1ccccc1 [PET-16, Triphenyl(phenylethynyl)phosphonium bromide, reference compound] | – | – | – | – | – | – | – | < 30 min
